Results taken from patent US11066433B2, “Pentaaza macrocyclic ring complexes possessing oral bioavailability” (Galera Labs, LLC, priority 2015, dated 2021).

Test: Oral bioavailability by intraduodenal (id) dosing of minipigs, oil formulations, versus iv parent
Format: in vivo, Gottingen minipig
Conditions: for Mini-Pig BioA: id 10 mg/kg, 10% by weight formulation, vs iv 1 mg/kg parent, AUC0-24 h
Experimental: Compounds were screened for oral bioavailability by injecting the formulated prodrugs directly into the duodenum (intraduodenal or id administration) of the minipig test subjects, thus bypassing the acidic environment of the stomach and thereby eliminating potentially misleading oral bioavailability results that could arise from alteration of the test article drug in the acid environment of the stomach.
The studies were conducted at Xenometrics LLC (Stillwell, Kans.) and the id bioavailability was determined using various axial ligand derivative complexes of GC4419, GC4444, GC4403 and GC4401.
Male Gottingen minipigs (4-5 mo old, 9-12 kg weight) were purchased from Marshall BioResources and housed at Xenometrics. […] The distal end was exteriorized with a reusable accessible hub (see surgical details below). During a recovery period of at least 2 weeks the minipigs were handled daily to acclimate them to the test procedures, i.e., id dosing and blood collections. For each experiment, each minipig received a test article drug dissolved or suspended in an excipient vehicle. […] All dosing experiments were conducted in fasted animals. Food was withdrawn from the minipigs 16 hours before dosing. The minipigs had ad libitum access to water. Dosed minipigs were allowed access to food 6 hour after dosing. The test article was administered at a dose of 10 mg/kg parent drug in 0.1 mL/kg vehicle (e.g., 1.5 mL in 15 kg minipig) as a bolus injection (˜1 minute) via the id cannula. The actual amount of total test article drug administered varied with the formula weight of the prodrug. An equal volume of excipient vehicle was used to flush the cannula after the test article was administered. Approximately 6 hours later, corn oil was used to flush the cannula. After approximately 24 hours post-dose, the catheter was flushed with sterile saline solution and capped. At the following time-points 0.25, 0.5, 1, 2, 4, 8, 24 and 48 hour post-injection, 2 mL blood samples were collected by cranial vena cava puncture (4 mL Sodium heparin Vacutainer, 20 g 1.5″ needle) after the skin surface was wiped with ethanol. The minipig was placed in a sling in a recumbent position without anesthesia for the collection of blood samples. The minipigs were never used more than once per 7 days for experimentation. The blood samples were kept on ice until processed for plasma. Blood samples were centrifuged at 1200×g for ten minutes at 4° C. and plasma samples were transferred to 96 well plate tubes, capped and stored at −20° C. until shipment on dry ice to the analytical laboratory used for measuring the concentration of drug in the plasma. The concentration of the parent manganese pentaaza macrocylic ring complex (independent of the composition of the axial ligands) was measured in plasma using a validated HPLC/MS/MS method that is linear between 50 ng/mL and 20,000 ng/mL.
Maisine 35-1 is chemically defined to be the monoglyceride glyceryl monolinoleate (NF) and was supplied by Gattefosse, SAINT-PRIEST Cedex, France. Labrasol (NF) is chemically defined to be caprylocaproyl polyoxyl-8 glycerides NF and was supplied by Gattefosse, SAINT-PRIEST Cedex, France. Labrafil M 1944 CS is chemically defined to be oleoyl polyoxyl-6 glycerides (NF), and is available from Gattefosse, SAINT-PRIEST Cedex, France. The dosing solutions were all prepared using a four place analytical balance by weighing all components of each formulation so that 10% by weight of each formulation contained the test article drug substance and 90% by weight of the oil used for that formulation.
The bioanalytical method which is used to quantitate the parent Mn(II) macrocyclic ring ligand structure in plasma utilizes HPLC with MS/MS detection and monitors the presence of the monocationic [monoformatoMn(pentaazamacrocycle)]+ complex. […]

Substance | Mini-Pig BioA (base oil Capmul MCM) | Mini-Pig BioA (base oil Maisine 35-1) | Mini-Pig BioA (base oil Peceol) | Mini-Pig BioA (base oil Labrafil M2125 CS) | Mini-Pig BioA (base oil Miglyol 812 N) | oral bioavailability, comparison in words (id dosing of minipigs, various oils)
Manganese(II)bis-L-phenylalaninato[(4aS,13aS,17aS,21 aS)-1,2,3,4,4a,5,6,12,13,13a,14, 15,16,17,17a,18,19,20,21,21a-Eicosahydro-11,7-nitrilo-7H-dibenzo[b, h][1,4,7,10]tetraazacyclo-heptadecine-κN5, κN13, κN18, κN21, κN22]- [GC4704] | 10% |  |  |  |  | 
Manganese(II)bis-L-phenylglycinato[(4aS,13aS,17aS,21 aS)-1,2,3,4,4a,5,6,12,13,13a, 14,15,16,17,17a,18,19,20,21,21a-Eicosahydro-11,7-nitrilo-7H-dibenzo[b,h][1,4,7,10]tetraazacyclo-heptadecine-κN5, κN13, κN18, κN21, κN22]- [GC4702] | 43% |  | 29% | 25% | 42% | much better absorbed
Manganese(II)bis-L-valinato[(4aS,13aS,17aS,21aS)-1,2,3,4,4a,5,6,12,13,13a,14,15,16,17,17a,18,19,20,21,21a-Eicosahydro-11,7-nitrilo-7H-dibenzo[b,h][1,4,7,10] tetraazacyclo-heptadecine-κN5, κN13, κN18, κN21, κN22]- [GC4746] | 13% |  |  |  |  | 
Manganese(II)bis-acetato[(4aS,13aS,17aS,21aS)-1,2,3,4,4a,5,6,12,13,13a,14,15,16,17,17a,18,19,20,21,21a-Eicosahydro-11,7-nitrilo-7H-dibenzo[b,h][1,4,7,10] tetraazacycloheptadecine-κN5, κN13, κN18, κN21, κN22]- [GC4701] | 15% | 8% | 11% | 16% |  | 
Manganese(II)bis-cyclohexanebutyrato[(4aS,13aS,17aS,21 aS)-1,2,3,4,4a,5,6,12,13,13a, 14,15,16,17,17a,18,19,20,21,21a-Eicosahydro-11,7-nitrilo-7H-dibenzo[b,h][1,4,7,10]tetraazacyclo-heptadecine-κN5, κN13, κN18, κN21, κN22]- [GC4707] | 9% |  |  |  |  | 

The remaining lines, values ahead:

Mini-Pig BioA (base oil Capmul MCM) | Mini-Pig BioA (base oil Maisine 35-1) | Mini-Pig BioA (base oil Peceol) | Mini-Pig BioA (base oil Labrafil M2125 CS) | Mini-Pig BioA (base oil Miglyol 812 N) | oral bioavailability, comparison in words (id dosing of minipigs, various oils) | Substance
24% | 18% | 29% |  |  |  | Manganese(II)bis-Benzoato[(4aS,13aS,17aS,21aS)-1,2,3,4,4a,5,6,12,13,13a,14,15,16,17,17a,18,19,20,21,21a-Eicosahydro-11,7-nitrilo-7H-dibenzo[b,h][1,4,7,10] tetraazacycloheptadecine-κN5, κN13, κN18, κN21, κN22]- [GC4712]
36% |  |  |  |  |  | Manganese(II)bis-L-Lactato[(4aS,13aS,17aS,21aS)-1,2,3,4,4a,5,6,12,13,13a,14,15,16,17,17a,18,19,20,21,21a-Eicosahydro-11,7-nitrilo-7H-dibenzo[b,h][1,4,7,10] tetraazacycloheptadecine-κN5, κN13, κN18, κN21, κN22]- [GC4714]
12% |  |  |  |  |  | Manganese(II)bis-dodecanoato[(4aS,13aS,17aS,21aS)-1,2,3,4,4a,5,6,12,13,13a,14,15,16,17,17a,18,19,20,21,21a-Eicosahydro-11,7-nitrilo-7H-dibenzo[b,h][1,4,7,10] tetraazacycloheptadecine-κN5, κN13, κN18, κN21, κN22]- [GC4708]
 |  | 18% | 21% |  |  | Manganese(II)bis-n-Butyrato[(4aS,13aS,17aS,21aS)-1,2,3,4,4a,5,6,12,13,13a,14,15,16,17,17a,18,19,20,21,21a-Eicosahydro-11,7-nitrilo-7H-dibenzo[b,h][1,4,7,10] tetraazacycloheptadecine-κN5, κN13, κN18, κN21, κN22]- [GC4713]
13% | 8% |  | 21% |  |  | Manganese(II)bis-octanoato[(4aS,13aS,17aS,21aS)-1,2,3,4,4a,5,6,12,13,13a,14,15,16,17,17a,18,19,20,21,21a-Eicosahydro-11,7-nitrilo-7H-dibenzo[b,h][1,4,7,10] tetraazacycloheptadecine-κN5, κN13, κN18, κN21, κN22]- [GC4710]
